# From PubChem BioAssay AID1963830 (Molecular Pharmacology Branch, DTP, NCI, 2024)
# Tested on: 922993-354-T-J3-PDC complex spheroid viability
# Test: Anticancer human tumor 922993-354-T-J3-PDC patient-derived endometrial carcinoma cell line growth inhibition [POLQ]
# Conditions: for IC50: curve of first compound; for viability, T/C: stronger effect = lower value
# Experimental: Multicellular complex tumor spheroid response to Polymerase (POL) inhibitors (novobiocin, ART-558, RP6685) in combination with a variety of drugs and investigational agents in selected tumor cell lines
# The POL inhibitors (novobiocin, ART-558, and RP6685) were evaluated both individually and in combination with standard of care and investigational anticancer small molecules within a complex spheroid model of solid tumors. . Complex spheroids include a stromal component modeled by human endothelial cells (HUVEC) and fibroblasts modeled by human mesenchymal stem cells (MSCs). The concentration ranges selected for each drug and investigational agent were based upon clinically achievable concentrations if the clinical Cmax of the agent was known.
# Compounds. The drugs and investigational agents: novobiocin (NSC847541), ART-558 (NSC835418), RP-6685 (NSC848927), peposertib (NSC802822), ceralasertib (NSC780249), elimusertib (NSC800525), camonsertib (NSC841442), AZD-1390 (NSC803789), olaparib (NSC753686), talazoparib (NSC767125), rucaparib (NSC756644), sotorasib (NSC818433), MRTX-1133 (NSC836407), SN-38 (NSC673596), topotecan (NSC609699), epotoside (NSC141540), doxorubicin (NSC123127), gemcitabine (NSC613327), 5-fluorouracil (NSC19893), paclitaxel (NSC125973), vemurafenib (NSC761431), MSA-2 (NSC828583), SN-011 (NSC837082), adavosertib (NSC754352), prexasertib (NSC758257), carboplatin (NSC241240) and oxaliplatin (NSC266046), were obtained from the National Cancer Institute (NCI) Developmental Therapeutics Program Chemical Repository (21). The FDA-approved anticancer drug set is available from the Developmental Therapeutics Program at https://dtp.cancer.gov/organization/dscb/obtaining/. […] The stock solutions were prepared in dimethyl sulfoxide (DMSO, Sigma-Aldrich, St. Louis, MO, cat. D2650), except for the platinum compounds which were prepared in saline (Quality Biological, Gaithersburg, MD, cat. 114-055-101), at 800-fold the tested concentration and stored at -70 degrees C prior to their use. All drugs and investigational agents were tested over a range starting from a high concentration at or near the clinical Cmax and decreasing in half-log increments. If the clinical Cmax for an agent had not been determined, the highest concentration tested was 10 microM, except for SN-38, which was tested at a high concentration of 1 microM.
# Cell Culture. All cells were maintained in an incubator at 37 degrees C and 5% CO2 with 95% humidity. The PDC lines were cultured according to standard operating procedures established by the NCI PDMR (https://pdmr.cancer.gov). Table 3 of the manuscript, lists the cell lines along with the number of the three cell types plated to form the mct-spheroids and media for tumor cell growth. After thawing, all PDC lines, except 997537-175-T-J1-PDC and 415267-285-R-J2-PDC, were cultured in Matrigel-coated flasks prepared with a working solution of 1X Ham's F-12 nutrient mix, without supplementation (Thermo Fisher Scientific, cat. 11765054), 100 U/mL penicillin-streptomycin (Thermo Fisher Scientific, cat. 15140122), and 2.5% Matrigel (Corning Inc., Corning, NY, cat. 354248) for the first three passages. The two PDC lines 997537-175-T-J1-PDC and 415267-285-R-J2-PDC were cultured on uncoated flasks. The 857933-349-R-J2-PDC line was cultured in 6C/Colon 1B media containing advanced DMEM/F-12 (Thermo Fisher Scientific, cat. 12634028), 10 mM HEPES (Thermo Fisher Scientific, cat. 15630080), 1X GlutaMAX supplement (Thermo Fisher Scientific, cat. 35050061), 0.1 mg/mL primocin (InvivoGen, San Diego, CA, cat. ant-pm-2), 10% defined fetal bovine serum, heat inactivated (HyClone Laboratories Inc., Logan, UT, cat. SH30070.03HI), 50% L-WRN conditioned media (ATCC, cat. CRL-3276), 1.25 mM N-Acetyl-L-cysteine (Sigma-Aldrich, cat. A9165), 10 mM nicotinamide (Sigma-Aldrich, cat. N0636), 1X B-27 supplement (Thermo Fisher Scientific, cat. 17504044), 1X N-2 supplement (Thermo Fisher Scientific, cat. […]
# [1] = second compound 0.0316 µM, first compound 0.0316 µM
# [2] = second compound 0.0316 µM, first compound 0.1 µM
# [3] = second compound 0.0316 µM, first compound 0.316 µM
# [4] = second compound 0.0316 µM, first compound 1 µM
# [5] = second compound 0.0316 µM, first compound 3.16 µM
# [6] = second compound 0.0316 µM, first compound 10 µM
# [7] = second compound 0.1 µM, first compound 0.0316 µM
# [8] = second compound 0.1 µM, first compound 0.1 µM
# [9] = second compound 0.1 µM, first compound 0.316 µM
# [10] = second compound 0.1 µM, first compound 1 µM
# [11] = second compound 0.1 µM, first compound 3.16 µM
# [12] = second compound 0.1 µM, first compound 10 µM
# [13] = second compound 0.316 µM, first compound 0.0316 µM
# [14] = second compound 0.316 µM, first compound 0.1 µM
# [15] = second compound 0.316 µM, first compound 0.316 µM
# [16] = second compound 0.316 µM, first compound 1 µM
# [17] = second compound 0.316 µM, first compound 3.16 µM
# [18] = second compound 0.316 µM, first compound 10 µM
# [19] = second compound 1 µM, first compound 0.0316 µM
# [20] = second compound 1 µM, first compound 0.1 µM
# [21] = second compound 1 µM, first compound 0.316 µM
# [22] = second compound 1 µM, first compound 1 µM
# [23] = second compound 1 µM, first compound 3.16 µM
# [24] = second compound 1 µM, first compound 10 µM
# [25] = second compound 3.16 µM, first compound 0.0316 µM
# [26] = second compound 3.16 µM, first compound 0.1 µM
# [27] = second compound 3.16 µM, first compound 0.316 µM
# [28] = second compound 3.16 µM, first compound 1 µM
# [29] = second compound 3.16 µM, first compound 3.16 µM
# [30] = second compound 3.16 µM, first compound 10 µM
# [31] = second compound 10 µM, first compound 0.0316 µM
# [32] = second compound 10 µM, first compound 0.1 µM
# [33] = second compound 10 µM, first compound 0.316 µM
# [34] = second compound 10 µM, first compound 1 µM
# [35] = second compound 10 µM, first compound 3.16 µM
# [36] = second compound 10 µM, first compound 10 µM
# 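Further: spheroids exposed to the agents for one week.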
# 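Wherever viability, T/C is given: 100% = DMSO vehicle control wells.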
smiles,measurement,setting,value
COc1cc(C2c3cc4c(cc3C(OC3OC5COC(C)OC5C(O)C3O)C3COC(=O)C23)OCO4)cc(OC)c1O (stereo unspecified) + COC1C(OC(N)=O)C(O)C(Oc2ccc3c(O)c(NC(=O)c4ccc(O)c(CC=C(C)C)c4)c(=O)oc3c2C)OC1(C)C,IC50,second compound 0.0316 µM,5980 nM
same,IC50,second compound 0.1 µM,7740 nM
same,IC50,second compound 0.316 µM,8380 nM
same,IC50,second compound 1 µM,7000 nM
same,IC50,second compound 3.16 µM,7130 nM
same,IC50,second compound 10 µM,7810 nM
same,"viability, T/C",[1],98%
same,"viability, T/C",[2],91%
same,"viability, T/C",[3],100%
same,"viability, T/C",[4],98.6%
same,"viability, T/C",[5],74.1%
same,"viability, T/C",[6],30.7%
same,"viability, T/C",[7],99.7%
same,"viability, T/C",[8],89.4%
same,"viability, T/C",[9],93.9%
same,"viability, T/C",[10],88.3%
same,"viability, T/C",[11],72.9%
same,"viability, T/C",[12],43.2%
same,"viability, T/C",[13],107%
same,"viability, T/C",[14],97.7%
same,"viability, T/C",[15],106%
same,"viability, T/C",[16],90%
same,"viability, T/C",[17],69.6%
same,"viability, T/C",[18],46.4%
same,"viability, T/C",[19],96.2%
same,"viability, T/C",[20],93.8%
same,"viability, T/C",[21],91.9%
same,"viability, T/C",[22],89.2%
same,"viability, T/C",[23],72.9%
same,"viability, T/C",[24],39.5%
same,"viability, T/C",[25],99.7%
same,"viability, T/C",[26],97.7%
same,"viability, T/C",[27],89.2%
same,"viability, T/C",[28],88.6%
same,"viability, T/C",[29],81.8%
same,"viability, T/C",[30],37.1%
same,"viability, T/C",[31],72.1%
same,"viability, T/C",[32],84.5%
same,"viability, T/C",[33],89.4%
same,"viability, T/C",[34],76.1%
same,"viability, T/C",[35],85.1%
same,"viability, T/C",[36],41.6%
COc1cccc2c1C(=O)c1c(O)c3c(c(O)c1C2=O)CC(O)(C(=O)CO)CC3OC1CC(N)C(O)C(C)O1 (stereo unspecified) + COC1C(OC(N)=O)C(O)C(Oc2ccc3c(O)c(NC(=O)c4ccc(O)c(CC=C(C)C)c4)c(=O)oc3c2C)OC1(C)C,IC50,second compound 0.0316 µM,1350 nM
same,IC50,second compound 0.1 µM,997 nM
same,IC50,second compound 0.316 µM,1080 nM
same,IC50,second compound 1 µM,899 nM
same,IC50,second compound 3.16 µM,893 nM
same,IC50,second compound 10 µM,723 nM
same,"viability, T/C",[1],104%
same,"viability, T/C",[2],88.8%
same,"viability, T/C",[3],80.7%
same,"viability, T/C",[4],53.3%
same,"viability, T/C",[5],33.9%
same,"viability, T/C",[6],10.1%
same,"viability, T/C",[7],97.2%
same,"viability, T/C",[8],101%
same,"viability, T/C",[9],88.6%
same,"viability, T/C",[10],48%
same,"viability, T/C",[11],21.8%
same,"viability, T/C",[12],8.62%
same,"viability, T/C",[13],105%
same,"viability, T/C",[14],91.9%
same,"viability, T/C",[15],77.3%
same,"viability, T/C",[16],50.7%
same,"viability, T/C",[17],28.7%
same,"viability, T/C",[18],12.9%
same,"viability, T/C",[19],102%
same,"viability, T/C",[20],96.1%
same,"viability, T/C",[21],68.7%
same,"viability, T/C",[22],45.8%
same,"viability, T/C",[23],30.9%
same,"viability, T/C",[24],10.7%
same,"viability, T/C",[25],94.5%
same,"viability, T/C",[26],100%
same,"viability, T/C",[27],87.1%
same,"viability, T/C",[28],44.7%
same,"viability, T/C",[29],21.6%
same,"viability, T/C",[30],10.8%
same,"viability, T/C",[31],86.4%
same,"viability, T/C",[32],90.8%
same,"viability, T/C",[33],68.7%
same,"viability, T/C",[34],41.1%
same,"viability, T/C",[35],22.8%
same,"viability, T/C",[36],10.4%
O=c1[nH]cc(F)c(=O)[nH]1 + COC1C(OC(N)=O)C(O)C(Oc2ccc3c(O)c(NC(=O)c4ccc(O)c(CC=C(C)C)c4)c(=O)oc3c2C)OC1(C)C,IC50,second compound 0.0316 µM,2520 nM
same,IC50,second compound 0.1 µM,2290 nM
same,IC50,second compound 0.316 µM,2150 nM
same,IC50,second compound 1 µM,2250 nM
same,IC50,second compound 3.16 µM,2090 nM
same,IC50,second compound 10 µM,2100 nM
same,"viability, T/C",[1],109%
same,"viability, T/C",[2],100%
same,"viability, T/C",[3],108%
same,"viability, T/C",[4],108%
same,"viability, T/C",[5],36.1%
same,"viability, T/C",[6],16%
same,"viability, T/C",[7],105%
same,"viability, T/C",[8],107%
same,"viability, T/C",[9],95.2%
same,"viability, T/C",[10],99.6%
same,"viability, T/C",[11],30.7%
same,"viability, T/C",[12],14.9%
same,"viability, T/C",[13],105%
same,"viability, T/C",[14],94.9%
same,"viability, T/C",[15],105%
same,"viability, T/C",[16],87.9%
same,"viability, T/C",[17],30.8%
same,"viability, T/C",[18],13.1%
same,"viability, T/C",[19],108%
same,"viability, T/C",[20],98.9%
same,"viability, T/C",[21],106%
same,"viability, T/C",[22],107%
same,"viability, T/C",[23],26.9%
same,"viability, T/C",[24],13.1%
same,"viability, T/C",[25],91.3%
same,"viability, T/C",[26],96.7%
same,"viability, T/C",[27],108%
same,"viability, T/C",[28],88.2%
same,"viability, T/C",[29],28.2%
same,"viability, T/C",[30],13.8%
same,"viability, T/C",[31],94.5%
same,"viability, T/C",[32],91.9%
same,"viability, T/C",[33],86%
same,"viability, T/C",[34],83.7%
same,"viability, T/C",[35],31.6%
same,"viability, T/C",[36],18.1%
